Here are results for eleven compounds from patent publication US5677349A, “Agmatine for the treatment of neurotrauma and neurodegenerative diseases” (priority 1995, dated 1997).

SMILES strings stand for the structures. Counter-ions that a name gives are not always drawn. Like-named read-outs stand apart in the source and are kept apart here.

Series [1] is described as follows: Effect on nerve cell survival and toxicity in culture (dissociated neonatal rat cerebellum). The format is cell-based. Particulars: rat, cerebellar nerve cells. The protocol:
(§1) A concentration-dependent (dose-response) effect on nerve cell survival was determined for each compound at a concentration range of 0.001-5000 micromolar (μM). The compounds were added to 3-day-old cultures and the effect was examined 24 hours later.
(§2) Nerve cell survival was evaluated by phase contrast microscopy and trypan blue exclusion staining.
(§3) The results, summarized in Table 1, show the compound concentrations at which 20% or more cells survived (Survival) relative to controls, and at which 50% of the cells died (TD50) when compared to controls. Control cultures were grown in enriched medium alone and represent 100% values.

Series [2] deals with nerve cell survival after NMDA neurotoxic challenge. As to the kind of experiment: Reversal of N-methyl-D-aspartate induced cell death in culture. To be noted: for Percent Protection: after NMDA, survival minus NMDA effect. The protocol:
The cerebellum is aseptically dissociated from 6 or 7-day old rat pups and placed in a 15 ml sterile plastic conical tube containing 3 ml of Dulbecco's modified Eagle's medium containing high glucose concentration ([…]), 2 Mm (v/v) L-glutamine and an antibiotic mixture. The cerebella are then dissociated after 20-25 passages through a sterile 13 gauge, 10 cm long stainless steel needle attached to a 5 ml syringe with an inserted 45 micrometer pore nylon sieve. The dissociated cells are centrifuged at 200 g for 5 minutes. The supernatant is discarded and the cells resuspended in medium enriched with 15% (v/v) heat inactivated fetal calf serum. Cell viability is determined by the trypan blue exclusion test.
Cells are plated at a density of 200/mm^2 on poly-L-lysine coated surfaces which are prepared at least one hour in advance of plating by covering the surfaces (plastic Petri dishes or glass coverslips) with sterile distilled water solution containing 15 micrograms/ml poly-L-lysine, and washing in sterile water just prior to use. The plated cells are covered with enriched medium and incubated at 37° C. in an atmosphere of 5% CO2 in air and 97% humidity. After three days in culture, the media is replaced with media containing the desired compound. Each compound is tested in duplicate and each experiment repeated at least once.
Four groups were run in each set of experiments:
1. Control, consisting of cells grown in enriched media alone;
2. N-methyl-D-aspartate (NMDA, 1 Mm for 3 hours) as the cytotoxic challenge;
3. Test compound added after the NMDA challenge;
4. Positive control, spermine or spermidine (0.01 μM) after NMDA.
The number of surviving cells was examined 24 hours after the challenge. Surviving cells in culture are measured relative to control (100%) as described above. Percent Protection is the cell survival for the test compound minus the NMDA effect. […] The Effective Protection value was calculated as the percent of the Percent Protection (X) divide by the maximal protection value (e.g. X×100/70).

Series [3] has as its system pyramidal neurons of the CA1 layer of the anterior hippocampus. As to the kind of experiment: animal or person. The format is in vivo. The protocol: Male mongolian gerbils, aged 2.5-5 months, housed 4-8 in a cage, are supplied freely with food and water and maintained at 24° C. with a 12 hour day/night cycle. For surgery, the animals are anesthetized with halothane (1.5% in 100% O2) and the common carotid arteries exposed bilaterally through a midline ventral neck incision. Each artery is clamped for 5 minutes with aneurysm clips to produce global brain ischemia. The anesthesia is discontinued upon clamping. After 5 minutes the clamps are removed and the wound closed with skin clips
For treatment, the test compound or saline (0.9% NaCl, vehicle) are injected intraperitoneally (ip) in a volume of 50 microliters of solvent per 10 g body weight. The first injection is given 5 minutes after clamp removal, and thereafter daily for the next 2 post-operative days (total of 3 injections).
Four general groups, each of 4-8 animals were compare:
1. Control (sham, or unoperated and vehicle treated);
2. Ischemia, untreated or vehicle treated;
3. Ischemia, test compound treated, one sub-group per concentration tested;
4. Ischemia and pentobarbital (40 mg/kg) as positive control.
Analysis of neuronal damage was performed 14 days post-ischemia by counting pyramidal neurons throughout the CA1 layer of the anterior hippocampus in 4 micrometer thick (paraffin) coronal brain sections, stained with hematoxylin eosin. Values of cell numbers in the hippocampi of individual gerbils were expressed as percent of intact controls (control cell counts were 275±25 cells/mm^2).
Percent Protection values represent the fraction of hippocampi protected from ischemia in a group of animals treated with the stated dose of compound.

The test system of series [4] is cell proliferation. Put plainly: Toxicity and cell proliferation, general statement. In kind it is cell-based.
Series [5] concerns nicotine receptors. To be noted: background; cited from earlier work.
Series [6] concerns NMDA receptors. Particulars: background; cited from earlier work.
Series [7] concerns intracellular imidazoline receptors. Particulars: background; cited from earlier work.
The test system of series [8] is ADP-ribosylation of proteins. Particulars: acts as ADP-ribose acceptor; background; cited from earlier work.
For series [9] the following is noted: animals; background; cited from earlier work.
The subject of series [10] is nerve cell survival. As to the kind of experiment: Effect on nerve cell survival and toxicity in culture (dissociated neonatal rat cerebellum). In kind it is cell-based. Particulars: 24 hours. Here is the method:
as §1, §2, §3

The test system of series [11] is ischemia-induced nerve cell death. Particulars: gerbils; Gilad et al. 1989, 1991, 1992; cited from earlier work.
Setting [12] is: TD50 (concentration at which 50% of the cells died).
Where [13] appears, read: Rattus norvegicus, 24 h, read-out: Effective Protection.
Setting [14] is: Rattus norvegicus, 24 h, read-out: Surviving Cells in Culture.
Setting [15] is: Meriones unguiculatus, Pyramidal neuron, ip, 336 h, read-out: Percent Protection.
Where [16] appears, read: 24 hours, 3-day-old cultures, read-out: TD50 (concentration at which 50% of the cells died).

`Clc1ccc2c(c1)Nc1ccccc1S2` [2-Cl-phenothiazine] showed a CC50 at 24 h in [1] (setting [12]) of 5 µM. In [2] (10 μM), the “Percent Protection” value worked out at 15%. Also, the “Percent Protection” value in [2] (50 μM) came to 32%. Moreover, in [2] (setting [13]), the inhibition at 10 µM is 21% and the inhibition at 50 µM came to 46%. In [2] (setting [14]), the viability at 10 µM was 45% and the viability at 50 µM was 62%. Further, the responders at 10 mg/kg in series [3] (setting [15]) worked out at 65%.

For the compound `C1C2CC3CC1CC(C2)C3` [Adamantane], the CC50 at 24 h in series [1] (setting [12]) is 1000 µM. The “Percent Protection” value in series [2] (10 μM) is given as 13%. For the same compound, the “Percent Protection” value in [2] (50 μM) is given as 20%. In series [2] (setting [13]), the inhibition at 10 µM turned out to be 19% and the inhibition at 50 µM is 29%. In series [2] (setting [14]), the viability at 10 µM amounted to 43% and the viability at 50 µM was 50%. Further, the responders at 50 mg/kg in [3] (setting [15]) was found to be 23%.

In the case of `N=C(N)NCCCCN` [Agmatine, agmatine], the CC50 at 24 h in series [1] (setting [16]) is 500 µM. For the same compound, in series [2] (10 μM), the “Percent Protection” value came out at 35%. Further, the “Percent Protection” value in [2] (50 μM) is 51%. Moreover, in series [2] (setting [13]), the inhibition at 10 µM turned out to be 50% and the inhibition at 50 µM came to 73%. In series [2] (setting [14]), the viability at 10 µM worked out at 65% and the viability at 50 µM came out at 81%. Also, in series [3] (setting [15]), the responders at 10 mg/kg worked out at 20%, the responders at 50 mg/kg came to 50% and the responders at 100 mg/kg came to 75%. For the same compound, in series [4], the Toxicity result is given as “relatively non-toxic”. For the same compound, the Cell proliferation result in series [4] (at some concentrations) was “accelerates cell proliferation”. The “Interaction with nicotine receptors” value in series [5] is “interaction with membrane receptors”. Moreover, the “Interaction with NMDA receptors” value in [6] was “interaction with membrane receptors”. Also, the “Interaction with intracellular imidazoline receptors” value in series [7] was “interaction with membrane receptors”. Further, in series [8], the “Effect on ADP-ribosylation of proteins” value was “inhibit ADP-ribosylation of proteins”. For the same compound, the Insulin-like effects result in [9] was “produces insulin-like effects in animals”.

In the case of `Cl.Cl.NCCCCNCCCN1c2ccccc2Sc2ccc(Cl)cc21` [G102, 2-chloro-N-(4-aminobutyl)-10H-Phenothiazine-10-propanamine-2HCl], the “Shape of dose-response curve for nerve cell survival” value in series [10] was “U-shaped dose-response curve”. In series [2] (1 μM), the “Percent Protection” value is 40%. Besides, the “Percent Protection” value in series [2] (50 μM) was found to be 5%. In addition, the “Percent Protection” value in series [2] (250 μM) was found to be 65%. Further, in series [2] (setting [13]), the inhibition at 1 µM amounted to 57%, the inhibition at 50 µM was 7% and the inhibition at 250 µM came to 93%. In [2] (setting [14]), the viability at 1 µM turned out to be 70%, the viability at 50 µM was found to be 35% and the viability at 250 µM was 95%. The toxic in [3] (10 mg/kg ip, ischemic gerbils, n=10) is 70%. Further, in series [3] (setting [15]), the responders at 1 mg/kg worked out at 40% and the responders at 5 mg/kg came to 70%.

Consider `NCCCNCCCCNCCCN1c2ccccc2Sc2ccc(Cl)cc21` [G103, 2-chloro-N-[3-(8-spermidinyl)]-10H-Phenothiazine-10-propanamine.3 HCl], for which, in [1] (setting [16]), the CC50 at 24 h is 2 µM. Further, in series [2] (0.01 μM), the “Percent Protection” value turned out to be 25%. Moreover, the “Percent Protection” value in series [2] (0.10 μM) is recorded as 2%. Further, in series [2] (1 μM), the “Percent Protection” value was -10%. In addition, in [2] (setting [13]), the inhibition at 0.01 µM was 36% and the inhibition at 0.1 µM was found to be 3%. For the same compound, in series [2] (setting [14]), the viability at 0.01 µM worked out at 55%, the viability at 0.1 µM is 32% and the viability at 1 µM was 20%. Moreover, the lethality entry in series [3] (0.50 mg/kg ip, ischemic gerbils, n=5) is “lethal”. In addition, in [3] (setting [15]), the responders at 0.01 mg/kg amounted to 42% and the responders at 0.1 mg/kg was 55%.

`CNC1(C)C2CCC(C2)C1(C)C` (centres unmarked) [Mecamylamine] showed a CC50 at 24 h in series [1] (setting [12]) of 500 µM. Besides, the “Percent Protection” value in series [2] (25 μM) was determined as 37%. Moreover, the inhibition at 25 µM in series [2] (setting [13]) is 53%. In addition, in series [2] (setting [14]), the viability at 25 µM was found to be 67%. Further, the responders at 10 mg/kg in series [3] (setting [15]) turned out to be 40%.

On to `CCCC(C)C1(CC)C(=O)NC(=O)NC1=O` (centres unmarked) [Pentobarbital, pentobarbital], for which the responders at 40 mg/kg in [3] (Meriones unguiculatus, Pyramidal neuron, 336 h, read-out: Percent Protection) stood at 87%.

In series [1] (setting [12]), `NCCCCN` [Putrescine] registered a CC50 at 24 h of 300 µM. Also, in series [2] (0.005 μM), the “Percent Protection” value is given as 2%. Further, the “Percent Protection” value in [2] (0.01 μM) turned out to be 0%. For the same compound, in series [2] (setting [13]), the inhibition at 0.005 µM stood at 3% and the inhibition at 0.01 µM was 0%. In addition, in series [2] (setting [14]), the viability at 0.005 µM is 32% and the viability at 0.01 µM came out at 30%. Also, the responders at 10 mg/kg in series [3] (setting [15]) was determined as 35%. In addition, in series [11], the “Effect against ischemia-induced nerve cell death” value is given as “protecting against ischemia-induced nerve cell death in gerbils”.

On to `C1CN2CCC1CC2` [Quinuclidine], for which the CC50 at 24 h in [1] (setting [16]) worked out at 100 µM. Also, in series [2] (1 μM), the “Percent Protection” value is 5%. For the same compound, the “Percent Protection” value in series [2] (10 μM) came out at 10%. Moreover, in series [2] (setting [13]), the inhibition at 1 µM was 7% and the inhibition at 10 µM worked out at 14%. Moreover, in series [2] (setting [14]), the viability at 1 µM amounted to 35% and the viability at 10 µM came to 40%. Besides, the responders at 10 mg/kg in series [3] (setting [15]) was found to be 15%.

Regarding `NCCCCNCCCN` [Spermidine], the CC50 at 24 h in [1] (setting [16]) was 2 µM. For the same compound, in series [2] (0.005 μM), the “Percent Protection” value is listed as 0%. Besides, the “Percent Protection” value in [2] (0.01 μM) is on record as 48%. Moreover, in series [2] (setting [13]), the inhibition at 0.005 µM was 0% and the inhibition at 0.01 µM was determined as 69%. In series [2] (setting [14]), the viability at 0.005 µM amounted to 30% and the viability at 0.01 µM is 78%. The responders at 10 mg/kg in series [3] (setting [15]) stood at 50%. For the same compound, the “Effect against ischemia-induced nerve cell death” value in [11] was “protecting against ischemia-induced nerve cell death in gerbils”.

In turn, `NCCCNCCCCNCCCN` [Spermine] gave a CC50 at 24 h in series [1] of 2 µM. The “Percent Protection” value in series [2] (0.005 μM) is recorded as -5%; in series [2] (0.01 μM) it was 38%. In addition, the inhibition at 0.01 µM in series [2] (setting [13]) was 54%. For the same compound, the viability at 0.005 µM in series [2] (setting [14]) came to 25%. In addition, the viability at 0.01 µM in series [2] (setting [14]) was found to be 68%. In addition, the responders at 10 mg/kg in [3] (setting [15]) stood at 65%. The “Effect against ischemia-induced nerve cell death” value in [11] was “protecting against ischemia-induced nerve cell death in gerbils”.
